Experimental data taken from article PMC4418665, “Cyclization of the Urokinase Receptor-Derived Ser-Arg-Ser-Arg-Tyr Peptide Generates a Potent Inhibitor of Trans-Endothelial Migration of Monocytes” (PLoS ONE, 2015).
Peptide text beside a SMILES is read from it.

Experiments:
primary macrophages = assay: Primary macrophage migration in DUNN chamber; type: cell-based, human; settings: 10 nM peptide added to 10 nM fMLF gradient, 6 hours
Protocol: The ability of [SRSRY] peptide to affect THP-1 cell migration was analyzed in Boyden chambers using 10 nM fMLF or 10 nM SRSRY as chemoattractants. […] Inhibitory effect of [SRSRY] is dose-dependent, it starts in the high fM range, it seems to level off in the μM range and reaches an overall 50% reduction at 10 pM (Fig 4B). […] The mechanisms by which monocytes move when subjected to a chemoattractant gradient, involve changes in cytoskeletal organization, which provide both protrusive and contractile forces necessary for cell migration. […] A total of 100 cells/sample that translocated to the area corresponding to the ring separating the inner and outer chambers were counted and their cytoskeletal organization examined with a fluorescence-inverted microscope. […] After 6 hours incubation, a total of 100 cells/sample that translocated to the area corresponding to the ring separating the inner and outer chambers were counted. […] Data are expressed as the means ± SD of three independent experiments, performed in duplicate. *Statistical significance against None with p<0.001. […] The extent of cell migration was expressed as a percentage of the net fMLF-dependent cell migration, considered as 100%. Data are expressed as the means ± SD of three independent experiments, performed in duplicate. […]

THP-1 cells = type: cell-based, human; settings: 10 nM peptide, 90 minutes, Boyden chamber
Protocol: The ability of [SRSRY] peptide to affect THP-1 cell migration was analyzed in Boyden chambers using 10 nM fMLF or 10 nM SRSRY as chemoattractants. […] Inhibitory effect of [SRSRY] is dose-dependent, it starts in the high fM range, it seems to level off in the μM range and reaches an overall 50% reduction at 10 pM (Fig 4B). […] The mechanisms by which monocytes move when subjected to a chemoattractant gradient, involve changes in cytoskeletal organization, which provide both protrusive and contractile forces necessary for cell migration. To gain some insights into the cellular effects exerted by peptide [SRSRY], PMA-differentiated THP-1 cells were grown adherent onto a glass slide, exposed to diluents (CTL), 10 nM fMLF gradient plus/minus 10 nM [SRSRY] or 10 nM [RSSYR] in a DUNN chamber for 6 hours as described, and then stained with rhodamine-phalloidin. A total of 100 cells/sample that translocated to the area corresponding to the ring separating the inner and outer chambers were counted and their cytoskeletal organization examined with a fluorescence-inverted microscope. […] Conversely, the addition of peptide [SRSRY] to the fMLF gradient reduced cell elongation and alignment with the appearance of F-actin linear distribution along the plasma membranes in the 60% of cell population (Fig 4C). In order to verify whether the inhibitory effect of [SRSRY] also occurs on primary monocytes and/or macrophages, human monocytes and macrophages were subjected to cell migration assays in Boyden and DUNN chambers, respectively. […] Unlike [RSSYR], 10 nM [SRSRY] reduced both fMLF- and SRSRY- directed monocyte migration by 50% and 49%, respectively. Next, primary macrophages were subjected to cell migration assay in DUNN chamber as above described. After 6 hours incubation, a total of 100 cells/sample that translocated to the area corresponding to the ring separating the inner and outer chambers were counted. Macrophage exposure to 10 nM fMLF elicited a considerable cell migration, reaching 230% of the basal cell migration (CTL), that was unchanged by 10 nM [[…]). […] These findings indicate that unlike linear SRSRY, the cyclic form of the chemotactic sequence of uPAR inhibits monocyte motility and prevents cytoskeletal re-organization occurring during migration of macrophages. {[…]] inhibits migration of monocytes and macrophages in a dose-dependent manner causing a marked inhibition of fMLF-dependent cytoskeletal re-organization. A. THP-1 cells (1x10^5 cells/well) were allowed to migrate for 90 minutes at 37°C, 5% CO2 in Boyden chambers toward 10 nM fMLF, or 10 nM SRSRY in the presence of diluents (None), 10 nM [RSSYR] or 10 nM [SRSRY]. […] Data are expressed as the means ± SD of three independent experiments, performed in duplicate. *Statistical significance against None with p<0.001. B. THP-1 and PMA-stimulated THP-1 cell migration toward 10 nM fMLF plus increasing concentrations of [SRSRY] in Boyden chambers. The extent of cell migration was expressed as a percentage of the net fMLF-dependent cell migration, considered as 100%. Data are expressed as the means ± SD of three independent experiments, performed in duplicate. C. Representative images of PMA-stimulated THP-1 cells allowed to migrate in a DUNN chamber toward diluents (CTL), or a fMLF chemotactic gradient, in the absence (None) or presence of 10 nM [SRSRY] or [RSSYR] peptides and stained with rhodamine-phalloidin. Scale bar: 10 μm. Original magnifications: 630x. D-E. Primary monocytes (1x10^5 cells/well) were allowed to migrate for 90 minutes at 37°C, 5% CO2 in Boyden chambers toward 10 nM fMLF (D), or 10 nM […]) in the presence of diluents (None), 10 nM [RSSYR] or 10 nM [SRSRY]. […] Data are expressed as the means ± SD of three independent experiments, performed in duplicate. *Statistical significance against None with p<0.001; **Statistical significance against None with p<0.0001. […]

FPR1 = molecular target: T1, FPR1 (Homo sapiens, UniProt P21462); assay: Agonist-induced FPR1 internalization at 37°C, fluorescence microscopy, THP-1 cells; type: cell-based; parameters: host or cells: THP-1 human monocytic leukemia cells; settings: excess (100 nM) unlabelled peptide 30 min at 37°C, then 10 nM FITC-fMLF 30 min at 37°C
T1 sequence (P21462 1-350): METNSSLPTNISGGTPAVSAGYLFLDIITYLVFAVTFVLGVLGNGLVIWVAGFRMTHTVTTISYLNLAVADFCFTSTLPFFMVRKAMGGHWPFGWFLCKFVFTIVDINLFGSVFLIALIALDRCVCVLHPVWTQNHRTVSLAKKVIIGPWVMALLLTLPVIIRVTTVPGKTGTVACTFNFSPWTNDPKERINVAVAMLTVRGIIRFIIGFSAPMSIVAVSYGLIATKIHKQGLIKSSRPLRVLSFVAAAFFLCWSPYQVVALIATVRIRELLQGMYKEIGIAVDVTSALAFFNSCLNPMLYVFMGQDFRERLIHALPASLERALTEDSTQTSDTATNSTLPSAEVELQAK
Protocol: Once documented that both SRSRY and [SRSRY] peptides compete with fMLF for binding to FPR1, we investigated the effect of [SRSRY] on the motility of monocytes. Preliminarily, we assessed whether [SRSRY] is a ligand of FPR1 on monocyte cell surface. […] (Fig 3A). When binding experiments were performed at 37°C, FPR1 appeared mainly localized within the cytoplasm, adjacent but outside the nucleus of THP-1 cells.
Fig 3 The peptide [SRSRY] binds to FPR1 on THP-1 cell surface. A. THP-1 cells (1.5 x10^6 cells/sample) were pre-incubated with diluents (None), 100 nM fMLF, 100 nM SRSRY or 100 nM [SRSRY] peptides for 60 minutes at 4°C, then exposed to 10 nM N-formyl-Nle-Leu-Phe-Nle-Tyr-Lys-fluorescein (FITC-fMLF) for additional 60 minutes at 4°C. Fluorimetric measurement of cell-associated fluorescence was assed using 485 nm excitation and 535 nm emission filters. Data are expressed as a percentage of the fluorescence associated to THP-1 cells exposed to FITC-fMLF alone (None = 100%) and represent a mean ± SD from triplicates. *Statistical significance (t-test) against None with p<0.001. B. THP-1 cells incubated with diluents (None), 100 nM fMLF, 100 nM SRSRY or 100 nM [SRSRY] peptides for 30 minutes at 37°C and exposed to 10 nM FITC-fMLF for additional 30 minutes at 37°C. Scale bar: 5 μm. Original magnifications: 630x. […]

For `N=C(N)NCCC[C@@H]1NC(=O)[C@H](CCCNC(=N)N)NC(=O)[C@H](Cc2ccc(O)cc2)NC(=O)[C@H](CO)NC(=O)[C@H](CO)NC1=O` [[RSSYR], [Arg-Ser-Ser-Tyr-Arg]] (cyclo(RRSSY)), the “effect on fMLF-directed migration of primary macrophages” value (primary macrophages) was “unchanged”, the “reduction of THP-1 monocyte migration toward 10 nM SRSRY” value (THP-1 cells) was “did not exert any effect” and the “reduction of THP-1 monocyte migration toward 10 nM fMLF” value (THP-1 cells) was “did not exert any effect”. For the same compound, the “internalization of fluorescent agonist in THP-1 cells” value (FPR1) was “did not exert such effect”.
